Values quoted from earlier work as cited in US20110009348A1, “CARBOHYDRATE GEL” (priority 2008, published 2011).

Tested on: male cyclists
Settings: comparison values given in text, source not stated

O=C(CO)[C@@H](O)[C@H](O)[C@H](O)CO [fructose]
peak oxidation achieved with a single carbohydrate source: ~0.4 g/min
